Target: T1, WT-CFTR (Homo sapiens, UniProt P13569)
T1 construct: host or cells: CFBE41o-
Experiment: Anti-CFTR immunoblotting (C-band) in CFBE41o- cells expressing WT-CFTR
Format: cell-based
Conditions: 24 h
Protocol: Cystic fibrosis bronchial epithelial (CFBE41o^−) cells stably expressing the human WT CFTR or F508del-CFTR mutant [generated in ([26])] were a gift from J. P. Clancy (University of Alabama, Birmingham) and cultured on fibronectin-coated plates (FNC coating mix; Enzo) in minimum essential medium with Earl’s salt (Thermo Fisher Scientific) containing 10% of heat-inactivated fetal bovine serum (FBS; Gibco), penicillin (100 U/ml), streptomycin ([…]) (Thermo Fisher Scientific), and puromycin (2 μg/ml; Sigma-Aldrich). […]
All cells were washed with ice-cold PBS and then lysed for 1 hour on ice with radioimmunoprecipitation assay (RIPA) buffer (Sigma-Aldrich, #R0278) containing 100 mM Na-fluoride, 4 mM Na-orthovanadate, 1 mM phenylmethylsulfonyl fluoride, 1 mM dithiothreitol, and benzonase (100 U/ml; Sigma-Aldrich). […] Samples were mixed with LDS sample buffer (Invitrogen), resolved by SDS-PAGE on 4 to 12% Novex bis-tris precast gels (Thermo Fisher Scientific), and analyzed by Western blotting using a wet transfer method (GenScript) and polyvinylidene difluoride membranes (Life Technologies). […] Membranes were treated with Western Lightning enhanced chemiluminescence substrate (PerkinElmer), and the chemiluminescence signal was recorded and quantified using a chemiluminescence reader and the corresponding software (Fusion FX 7, Evolution Edge, Vilber). […]

T1 sequence (P13569 whole entry): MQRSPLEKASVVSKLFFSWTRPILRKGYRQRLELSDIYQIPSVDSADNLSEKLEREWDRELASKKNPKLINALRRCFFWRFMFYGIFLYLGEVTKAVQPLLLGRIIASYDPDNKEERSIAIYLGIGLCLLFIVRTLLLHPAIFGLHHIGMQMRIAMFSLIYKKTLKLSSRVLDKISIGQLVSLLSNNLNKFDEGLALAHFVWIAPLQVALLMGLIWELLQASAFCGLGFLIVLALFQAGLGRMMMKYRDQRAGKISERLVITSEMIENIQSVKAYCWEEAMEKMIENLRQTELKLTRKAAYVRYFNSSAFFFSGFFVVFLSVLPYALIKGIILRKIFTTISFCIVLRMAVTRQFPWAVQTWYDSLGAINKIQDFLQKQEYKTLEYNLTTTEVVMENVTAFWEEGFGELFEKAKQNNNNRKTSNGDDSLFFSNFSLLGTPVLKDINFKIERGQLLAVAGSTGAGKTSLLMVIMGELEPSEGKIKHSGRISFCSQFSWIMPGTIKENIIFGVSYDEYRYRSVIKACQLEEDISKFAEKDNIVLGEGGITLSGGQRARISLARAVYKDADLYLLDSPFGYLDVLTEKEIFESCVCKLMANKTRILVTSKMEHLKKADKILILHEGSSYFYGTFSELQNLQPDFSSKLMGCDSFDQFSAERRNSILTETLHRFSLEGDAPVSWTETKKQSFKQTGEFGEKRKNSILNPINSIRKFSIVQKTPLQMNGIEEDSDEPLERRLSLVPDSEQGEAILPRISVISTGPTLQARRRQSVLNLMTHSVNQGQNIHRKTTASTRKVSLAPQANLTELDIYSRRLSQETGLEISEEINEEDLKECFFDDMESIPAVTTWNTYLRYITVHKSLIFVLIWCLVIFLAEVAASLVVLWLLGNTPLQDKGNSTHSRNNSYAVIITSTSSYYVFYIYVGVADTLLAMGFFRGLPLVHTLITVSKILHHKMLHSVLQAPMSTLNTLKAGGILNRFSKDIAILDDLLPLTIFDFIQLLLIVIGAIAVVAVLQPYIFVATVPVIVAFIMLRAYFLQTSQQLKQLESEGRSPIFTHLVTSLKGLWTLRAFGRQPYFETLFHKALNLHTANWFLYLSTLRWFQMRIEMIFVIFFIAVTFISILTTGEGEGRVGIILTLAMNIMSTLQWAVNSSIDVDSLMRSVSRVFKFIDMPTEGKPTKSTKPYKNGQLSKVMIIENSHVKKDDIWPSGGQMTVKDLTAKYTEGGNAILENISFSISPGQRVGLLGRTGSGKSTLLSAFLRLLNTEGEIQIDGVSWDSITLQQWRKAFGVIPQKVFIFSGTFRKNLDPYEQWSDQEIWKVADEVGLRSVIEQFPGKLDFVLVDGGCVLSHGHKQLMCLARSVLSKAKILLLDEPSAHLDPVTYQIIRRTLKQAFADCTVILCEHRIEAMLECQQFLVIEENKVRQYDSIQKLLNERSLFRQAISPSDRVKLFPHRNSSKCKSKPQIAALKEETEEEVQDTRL

COc1cc(CCNC(=O)C2CC(=O)N(C)C(CC(C)C)C(=O)N3CCCCC3C(=O)NC(Cc3ccccc3)COc3ccc4ncc(F)cc4c3C(=O)N2)on1 (stereo not shown) [IDOR-3]
increase in WT-CFTR C-band: ~ 2 fold
